# Read-outs that look alike come from different tables or passages of the source. Marks after values point to notes of the source that are not given here.
# Experiments:
# [1] = tested on: Ang II-stimulated aldosterone release; design: method as in D. Rigel, personal communication; details: dogs; ref D. Rigel, personal communication; read-out: EC50, inhibition of Ang II-stimulated aldosterone release; cited from earlier work
# [2] = rat, over the tested dose range
# Protocol: All animal procedures were conducted in accordance with an approved Novartis Animal Care and Use Committee protocol and the Guide for the Care and Use of Laboratory Animals as described previously [21]. Male S-D rats (~500 g) were purchased from Taconic Farms (Germantown, NY, USA) and acclimatized in the Novartis vivarium (12 h light/dark cycle; 72°F; 55% relative humidity) for at least 7 days before being used in experiments. Rats were provided normal chow (Harlan Teklad 8604) and water ad libitum except for a partial fast before and during an experiment.
# Both rats and monkeys were surgically instrumented with chronically indwelling femoral venous and arterial catheters to allow intravenous administration of substances and repeated blood sampling.
# All pharmacokinetic parameters were derived from concentration–time data by non-compartmental analyses and were calculated using WinNonlin (Enterprise, Version 5.2; Pharsight Corporation, Palo Alto, CA, USA).
# [3] = tested on: Ang-II-stimulated aldosterone synthesis; assay: animal or person; details: Rattus norvegicus, po, read-out: ED50 for inhibiting Ang-II-stimulated aldosterone response
# Protocol: Male S-D rats (~500 g) were purchased from Taconic Farms (Germantown, NY, USA) and acclimatized in the Novartis vivarium (12 h light/dark cycle; 72°F; 55% relative humidity) for at least 7 days before being used in experiments. Rats were provided normal chow (Harlan Teklad 8604) and water ad libitum except for a partial fast before and during an experiment.
# Study protocols for the rat models of Ang-II- and ACTH-stimulated aldosterone synthesis followed a published protocol [21]. For the Ang-II-infusion model, an initial loading dose of 300 ng/kg angiotensin II (Ang II) was followed by 100 ng/kg/min intravenous (i.v.) infusion for 9 h. […] After 1 h of Ang II or ACTH infusion, a blood sample was collected for determining the post-Ang II or ACTH ‘baseline’ (i.e., secretagogue-elevated) plasma aldosterone and corticosterone concentrations. […] In both models, infusion continued for a further 8 h.
# Blood samples were centrifuged at 20,000g for 20 min at 4°C to separate out plasma, which was aliquoted and frozen at −70°C until required for analysis. Plasma aldosterone and cortisol concentrations from animal studies were measured using commercially available solid-phase ^125I radioimmunoassay kits (Coat-A-Count Aldosterone TKAL1; Coat-A-Count Cortisol TKCO1; Siemens Healthcare Diagnostic Products).
# [4] = target: 11β-hydroxylase (CYP11B1), rat adrenal homogenate (Rattus norvegicus, UniProt P15393); assay: biochemical
# Chain of 11β-hydroxylase (CYP11B1), rat adrenal homogenate (P15393 25-499): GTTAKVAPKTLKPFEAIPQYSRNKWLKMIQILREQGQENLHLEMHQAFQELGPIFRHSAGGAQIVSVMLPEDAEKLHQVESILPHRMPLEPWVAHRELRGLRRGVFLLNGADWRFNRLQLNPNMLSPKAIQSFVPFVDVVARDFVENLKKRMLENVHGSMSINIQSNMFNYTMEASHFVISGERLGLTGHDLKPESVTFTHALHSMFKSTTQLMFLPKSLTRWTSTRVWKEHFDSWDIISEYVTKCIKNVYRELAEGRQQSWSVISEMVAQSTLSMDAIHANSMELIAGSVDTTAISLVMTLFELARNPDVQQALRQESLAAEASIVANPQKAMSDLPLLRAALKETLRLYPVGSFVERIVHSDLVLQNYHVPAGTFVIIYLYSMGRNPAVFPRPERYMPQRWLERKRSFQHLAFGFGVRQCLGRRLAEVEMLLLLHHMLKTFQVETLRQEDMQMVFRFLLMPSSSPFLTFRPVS
# Protocol: Rat adrenal homogenates were prepared from the adrenal glands of male Sprague-Dawley (S-D) rats as described previously [21]. Monkey CYB11B2 and CYB11B1 homogenates were prepared from the adrenal glands of female cynomolgous monkeys. Monkey adrenal gland tissue was minced and homogenized on ice in a glass tissue grinder in 1 mL of ice-cold homogenization buffer per 100 mg tissue (adding 2.7 mmol/L CaCl2 and one ethylenediaminetetraacetic acid (EDTA)-free protease inhibitor tablet per 50 mL buffer) [20]. The homogenized material was centrifuged at 450 g for 5 min at 4°C, and the supernatant brought to a final glycerol concentration of 5%, flash-frozen in liquid nitrogen, and stored at −80°C until analysis. Aldosterone, cortisol and corticosterone concentrations were quantified using 96-well plate assays (see Additional file 1).
# The rat and monkey assays were conducted similarly, using 11-DOC as substrate.
# Half-maximal inhibitory concentration (IC50) values were derived using a non-linear least-squares curve-fitting program (XLfit; ID Business Solutions Inc., Bridgewater, NJ, USA).
# Aldosterone concentration was measured using 96-well plates. […] The amount of aldosterone, cortisol or corticosterone was calculated by comparison with a standard curve.
# ACTH-stimulated cortisol = details: rhesus monkeys, cited from earlier work
# healthy male volunteers = assay: Human pharmacodynamics, multiple-dose phase; details: for Plasma potassium, Δ Day2 vs baseline (Day −1) / Plasma potassium, Δ Day7 vs baseline (Day −1) / Plasma potassium, Δ Day14 vs Day 7 / Plasma sodium, Δ Day2 vs baseline (Day −1) / Plasma sodium, Δ Day7 vs baseline (Day −1) / Plasma sodium, Δ Day14 vs Day 7 / Urinary potassium, Δ Day 1 vs baseline (Day −1) / Urinary potassium, Δ Day 7 vs baseline (Day −1) / Urinary potassium, Δ Day 14 vs Day 7 / Urinary sodium, Δ Day 1 vs baseline (Day −1) / Urinary sodium, Δ Day 7 vs baseline (Day −1) / Urinary sodium, Δ Day 14 vs Day 7: ANCOVA mean; for change in pre-dose plasma ACTH from baseline: Day 6
# [5] = LCI699 0.5 mg, Day 1, mean ± SEM
structure (smiles),measurement,setting,value
N#Cc1ccc([C@H]2CCc3cncn32)c(F)c1 [LCI699],EC50,[1],0.041 µM
same,dose proportionality of pharmacokinetics,[2],dose-proportional
same,ED50,[3],0.6 mg/kg
same,IC50,[4],3.05 µM
same,effect on ACTH-stimulated cortisol,ACTH-stimulated cortisol; 3 mg/kg i.v.,reduced ACTH-stimulated cortisol
same,effect on ACTH-stimulated cortisol,ACTH-stimulated cortisol; i.v. 0.003–1 mg/kg,no effect
same,"Plasma potassium, Δ Day2 vs baseline (Day −1)",healthy male volunteers; LCI699 0.5 mg once daily,+0.20 mEq/L
same,"Plasma potassium, Δ Day7 vs baseline (Day −1)",healthy male volunteers; LCI699 0.5 mg once daily,+0.25^‡ mEq/L
same,"Plasma potassium, Δ Day14 vs Day 7",healthy male volunteers; LCI699 0.5 mg once daily,+0.05 mEq/L
same,"Plasma sodium, Δ Day2 vs baseline (Day −1)",healthy male volunteers; LCI699 0.5 mg once daily,+0.23 mEq/L
same,"Plasma sodium, Δ Day7 vs baseline (Day −1)",healthy male volunteers; LCI699 0.5 mg once daily,−1.71^‡ mEq/L
same,"Plasma sodium, Δ Day14 vs Day 7",healthy male volunteers; LCI699 0.5 mg once daily,+0.41 mEq/L
same,"Urinary potassium, Δ Day 1 vs baseline (Day −1)",healthy male volunteers; LCI699 0.5 mg once daily,+9.2 mEq/24 h
same,"Urinary potassium, Δ Day 7 vs baseline (Day −1)",healthy male volunteers; LCI699 0.5 mg once daily,+12.8 mEq/24 h
same,"Urinary potassium, Δ Day 14 vs Day 7",healthy male volunteers; LCI699 0.5 mg once daily,+20.2 mEq/24 h
same,"Urinary sodium, Δ Day 1 vs baseline (Day −1)",healthy male volunteers; LCI699 0.5 mg once daily,+45.2^† mEq/24 h
same,"Urinary sodium, Δ Day 7 vs baseline (Day −1)",healthy male volunteers; LCI699 0.5 mg once daily,+3.6 mEq/24 h
same,"Urinary sodium, Δ Day 14 vs Day 7",healthy male volunteers; LCI699 0.5 mg once daily,−25.5 mEq/24 h
same,change in 24 h urinary aldosterone levels from baseline,"healthy male volunteers; LCI699 0.5 mg, Day 1",–39%
same,reduction of 24 h urinary aldosterone,healthy male volunteers; [5],39 ± 6%
same,reduction of plasma aldosterone,healthy male volunteers; [5],49 ± 3%
same,change in pre-dose plasma ACTH from baseline,healthy male volunteers; LCI699 0.5 mg,−14.5%
same,increase in PRA from baseline,"healthy male volunteers; LCI699 0.5 mg, Day 7",106%
same,increase in PRA compared with baseline,"healthy male volunteers; LCI699 0.5 mg, Day 14",130%
same,Mean pre-dose plasma aldosterone levels,"healthy male volunteers; LCI699 1 mg and 3 mg once daily, Day 14",209 to 293 pg/mL
same,"Plasma potassium, Δ Day2 vs baseline (Day −1)",healthy male volunteers; LCI699 1 mg once daily,+0.08 mEq/L
same,"Plasma potassium, Δ Day7 vs baseline (Day −1)",healthy male volunteers; LCI699 1 mg once daily,+0.12* mEq/L
same,"Plasma potassium, Δ Day14 vs Day 7",healthy male volunteers; LCI699 1 mg once daily,−0.06 mEq/L
same,"Plasma sodium, Δ Day2 vs baseline (Day −1)",healthy male volunteers; LCI699 1 mg once daily,−0.59 mEq/L
same,"Plasma sodium, Δ Day7 vs baseline (Day −1)",healthy male volunteers; LCI699 1 mg once daily,−0.11 mEq/L
same,"Plasma sodium, Δ Day14 vs Day 7",healthy male volunteers; LCI699 1 mg once daily,−0.01 mEq/L
same,"Urinary potassium, Δ Day 1 vs baseline (Day −1)",healthy male volunteers; LCI699 1 mg once daily,+9.7 mEq/24 h
same,"Urinary potassium, Δ Day 7 vs baseline (Day −1)",healthy male volunteers; LCI699 1 mg once daily,+17.4* mEq/24 h
same,"Urinary potassium, Δ Day 14 vs Day 7",healthy male volunteers; LCI699 1 mg once daily,+4.2 mEq/24 h
same,"Urinary sodium, Δ Day 1 vs baseline (Day −1)",healthy male volunteers; LCI699 1 mg once daily,+76.3^‡ mEq/24 h
same,"Urinary sodium, Δ Day 7 vs baseline (Day −1)",healthy male volunteers; LCI699 1 mg once daily,+44.0 mEq/24 h
same,"Urinary sodium, Δ Day 14 vs Day 7",healthy male volunteers; LCI699 1 mg once daily,−3.6 mEq/24 h
same,change in 24 h urinary aldosterone levels from baseline,"healthy male volunteers; LCI699 1 mg, Day 1",–39%
same,change in pre-dose plasma ACTH from baseline,healthy male volunteers; LCI699 1 mg,−31.4%
same,change in 24 h urinary aldosterone levels from baseline,"healthy male volunteers; LCI699 1 mg, Day 7",−12%
same,increase in PRA from baseline,"healthy male volunteers; LCI699 1 mg, Day 7",277%
same,increase in PRA compared with baseline,"healthy male volunteers; LCI699 1 mg, Day 14",327%
same,"Plasma sodium, Δ Day2 vs baseline (Day −1)",healthy male volunteers; LCI699 3 mg once daily,−0.73* mEq/L
same,"Plasma sodium, Δ Day7 vs baseline (Day −1)",healthy male volunteers; LCI699 3 mg once daily,−2.87^‡ mEq/L
same,"Plasma sodium, Δ Day14 vs Day 7",healthy male volunteers; LCI699 3 mg once daily,−0.45 mEq/L
same,"Urinary potassium, Δ Day 1 vs baseline (Day −1)",healthy male volunteers; LCI699 3 mg once daily,+2.9 mEq/24 h
same,"Urinary potassium, Δ Day 7 vs baseline (Day −1)",healthy male volunteers; LCI699 3 mg once daily,+12.2 mEq/24 h
same,"Urinary sodium, Δ Day 1 vs baseline (Day −1)",healthy male volunteers; LCI699 3 mg once daily,+64.0^‡ mEq/24 h
same,"Urinary sodium, Δ Day 7 vs baseline (Day −1)",healthy male volunteers; LCI699 3 mg once daily,+22.2 mEq/24 h
same,"Urinary sodium, Δ Day 14 vs Day 7",healthy male volunteers; LCI699 3 mg once daily,−17.2 mEq/24 h
same,change in 24 h urinary aldosterone levels from baseline,"healthy male volunteers; LCI699 3 mg, Day 1",–66%
same,change in pre-dose plasma ACTH from baseline,healthy male volunteers; LCI699 3 mg,−15.6%
same,change in 24 h urinary aldosterone levels from baseline,"healthy male volunteers; LCI699 3 mg, Day 7",−44%
same,increase in PRA from baseline,"healthy male volunteers; LCI699 3 mg, Day 7",377%
